What was measured:
Meg-01 cells [1] = test: Platelet production from Meg-01 cells (flow cytometry); assay type: cell-based, human; conditions: for platelet production / effect of antioxidant pretreatment on 15d-PGJ2-induced platelet production: Meg-01 cells; for platelet production: 10 μM, 24 h; for effect of antioxidant pretreatment on 15d-PGJ2-induced platelet production: 5 mM GSH-EE or 1 mM NAC for 2 h, then 15d-PGJ2 24 h
Description: Meg-01 and M07e cells were purchased from the American Type Culture Collection (Rockville, Md.) and Dami cells were a generous gift from Dr. Patricia J. Simpson-Haidaris (University of Rochester). All cells were cultured in RPMI-1640 tissue culture medium (Invitrogen) supplemented with 5% fetal bovine serum (FBS; Invitrogen), 10 mM HEPES (N-2-hydroxyethylpiperazine-N′-2-ethanesulfonic acid; Sigma), 2 mM L-glutamine (Invitrogen), 4.5 g/L glucose (Invitrogen), and 50 μg/mL gentamicin (Invitrogen). M07e cells were also supplemented with 100 ng/mL of granulocyte monocyte-colony stimulating factor (GM-CSF, R&D Systems). All treatments were performed in normal growth media. Dimethyl sulfoxide (DMSO) was used as a vehicle (control) in the experiments described below.
Platelets were isolated from megakaryocytes by centrifugation at 150 xg for 10 min. Supernatants underwent sequential centrifugation (500 xg for 10 min and 1000×g for 10 min). The remaining platelet pellet was fixed then permeabilized with a CD61 or CD41 antibody. 7-AAD (BD Pharmingen) was added for 10 min before analyzing the cells by flow cytometry. Platelets were identified using three well-described parameters (Patel et al., “The Biogenesis of Platelets from Megakaryocyte Proplatelets,” J Clin Invest 115:3348-3354 (2005); Breton-Gorius et al., “Expression of Platelet Proteins During the In Vitro and In Vivo Differentiation of Megakaryocytes and Morphological Aspects of Their Maturation,” Semin Hematol 23:43-67 (1986); Ogura et al., “Establishment of a Novel Human Megakaryoblastic Leukemia Cell Line, MEG-01, With Positive Philadelphia Chromosome,” Blood 66:1384-1392 (1985) and Franks et al., “A Fluorescence Microscopy Method for Quantifying Levels of Prostaglandin Endoperoxide H Synthase-1 and CD-41 in MEG-01 Cells,” Biol Proced Online 3:54-63 (2001), each of which is hereby incorporated by reference in its entirety), size (using normal human platelets as a control), presence of CD61 or CD41 and lack of DNA as determined by the absence of 7-AAD staining Ten thousand platelet events were collected and platelets were quantified by rate (platelet events/second) (Chung et al., “Platelet Activation in Acute, Decompensated Congestive Heart Failure,” Thromb Res 120:709-713 (2007), which is hereby incorporated by reference in its entirety.
A 19 by target sequence was selected to knock down PPARγ. PPARγ was cloned downstream of the RNA polymerase III U6 promoter and subcloned into a FG12 lentiviral vector which expresses green fluorescent protein (GFP) under the Ubiquitin C promoter. HEK 293 cells expressing this siRNA PPARγ had reduced PPARγ protein levels. To make the lentivirus, HEK 293 cells were co-transfected with 3 plasmids: the envelope vector (CMV-VSVG), the transfer vector (FG12-shRNAPPAR), and the packaging construct (pCMVΔ89.2 (gag/pol proteins)). Viral supernatants were collected every 8 h for 2 days and concentrated by ultracentrifugation at 50,000×g for 2 h at 4° C. using a Beckman SW 28 rotor. Viral titers were determined by infection of HeLa cells with serial dilutions of the viral stocks. Meg-01 cells were infected at a multiplicity of infection (MOI) of 20. After 48 h, approximately 56% of the PPARγ siRNA cells were transduced as determined by flow cytometry. The GFP positive (+) cells were then sorted by FACS and grown in RPMI with 5% FBS.

Meg-01 cells [2] = test: Reactive oxygen species production in Meg-01 cells (carboxy-H2DCFDA, MitoSOX Red); assay type: cell-based, human; conditions: for percentage of Meg-01 cells that produce mitochondrial superoxide (MitoSOX Red): 10 μM; for effect of antioxidant pretreatment on 15d-PGJ2 ROS induction: Meg-01 cells, pretreatment before 15d-PGJ2
Description: Ten μM carboxy-H2DCFDA was added to cells for 20 min at RT. The cells were washed and immediately analyzed by flow cytometry. Five μM of MitoSOX Red dye in HBSS containing Mg^2+ and Ca^2+ was added to the cells for 15 min at 37° C. The cells were washed in HBSS and analyzed by flow cytometry.

[3] = test system: primary human megakaryocytes; test: Platelet production from human cord blood CD34+-derived megakaryocytes; assay type: cell-based; conditions: primary human megakaryocytes; 5 mM GSH-EE or 1 mM NAC for 2 h, then 15d-PGJ2 24 h
Description: Human CD34+ cord blood cells were obtained from the National Disease Research Interchange (NDRI, Philadelphia, Pa.). Cells were plated at 2.5×10^5 cells per well in a 12-well plate and cultured in serum-free medium as previously described (Zeuner et al., “Chemotherapy-induced Thrombocytopenia Derives from the Selective Death of Megakaryocyte Progenitors and Can Be Rescued by Stem Cell Factor,” Cancer Res 67:4767-4773 (2007), which is hereby incorporated by reference in its entirety) and supplemented with 100 ng/mL of rhTPO. After 14 days in culture, megakaryocytes were identified by staining with a CD61-FITC antibody and analyzed on a BD Biosciences FACSCalibur flow cytometer. Data were analyzed using FlowJo software (Treestar, Ashland, Oreg.). Cell images were captured using an inverted microscope (Olympus IX81). Platelets were isolated from megakaryocytes by centrifugation at 150 xg for 10 min. Supernatants underwent sequential centrifugation (500 xg for 10 min and 1000×g for 10 min). The remaining platelet pellet was fixed then permeabilized with a CD61 or CD41 antibody. 7-AAD (BD Pharmingen) was added for 10 min before analyzing the cells by flow cytometry. Platelets were identified using three well-described parameters (Patel et al., “The Biogenesis of Platelets from Megakaryocyte Proplatelets,” J Clin Invest 115:3348-3354 (2005); Breton-Gorius et al., “Expression of Platelet Proteins During the In Vitro and In Vivo Differentiation of Megakaryocytes and Morphological Aspects of Their Maturation,” Semin Hematol 23:43-67 (1986); Ogura et al., “Establishment of a Novel Human Megakaryoblastic Leukemia Cell Line, MEG-01, With Positive Philadelphia Chromosome,” Blood 66:1384-1392 (1985) and Franks et al., “A Fluorescence Microscopy Method for Quantifying Levels of Prostaglandin Endoperoxide H Synthase-1 and CD-41 in MEG-01 Cells,” Biol Proced Online 3:54-63 (2001), each of which is hereby incorporated by reference in its entirety), size (using normal human platelets as a control), presence of CD61 or CD41 and lack of DNA as determined by the absence of 7-AAD staining Ten thousand platelet events were collected and platelets were quantified by rate (platelet events/second) (Chung et al., “Platelet Activation in Acute, Decompensated Congestive Heart Failure,” Thromb Res 120:709-713 (2007), which is hereby incorporated by reference in its entirety.

[4] = test system: primary human megakaryocytes; test: Reactive oxygen species production in primary human megakaryocytes; assay type: cell-based; conditions: pretreatment before 15d-PGJ2
Description: Human CD34+ cord blood cells were obtained from the National Disease Research Interchange (NDRI, Philadelphia, Pa.). Cells were plated at 2.5×10^5 cells per well in a 12-well plate and cultured in serum-free medium as previously described (Zeuner et al., “Chemotherapy-induced Thrombocytopenia Derives from the Selective Death of Megakaryocyte Progenitors and Can Be Rescued by Stem Cell Factor,” Cancer Res 67:4767-4773 (2007), which is hereby incorporated by reference in its entirety) and supplemented with 100 ng/mL of rhTPO. After 14 days in culture, megakaryocytes were identified by staining with a CD61-FITC antibody and analyzed on a BD Biosciences FACSCalibur flow cytometer. Data were analyzed using FlowJo software (Treestar, Ashland, Oreg.). Cell images were captured using an inverted microscope (Olympus IX81). Ten μM carboxy-H2DCFDA was added to cells for 20 min at RT. The cells were washed and immediately analyzed by flow cytometry. Five μM of MitoSOX Red dye in HBSS containing Mg^2+ and Ca^2+ was added to the cells for 15 min at 37° C. The cells were washed in HBSS and analyzed by flow cytometry.

CCCCC[C@H](O)/C=C/[C@@H]1[C@@H](C/C=C\CCCC(=O)O)[C@@H](O)C[C@H]1O [PGF2α]
platelet production (Meg-01 cells [1]): failed to enhance platelet production

CCCCC[C@H](O)/C=C/[C@H]1C(=O)C=C[C@@H]1C/C=C\CCCC(=O)O [PGJ2]
platelet production (Meg-01 cells [1]): enhanced Meg-01 platelet production | percentage of Meg-01 cells that produce mitochondrial superoxide (MitoSOX Red) (Meg-01 cells [2]; 1 h): 33% | percentage of Meg-01 cells that produce mitochondrial superoxide (MitoSOX Red) (Meg-01 cells [2]; 6 h): 25% | percentage of Meg-01 cells that express ROS (carboxy-H2DCFDA) (Meg-01 cells [2]; 1 h): 65% | percentage of Meg-01 cells that express ROS (carboxy-H2DCFDA) (Meg-01 cells [2]; 6 h): 76%

CC(=O)N[C@@H](CS)C(=O)O [NAC, N-acetylcysteine, reference compound]
effect of antioxidant pretreatment on 15d-PGJ2-induced platelet production (Meg-01 cells [1]): attenuate 15d-PGJ2-induced platelet production | effect of antioxidant pretreatment on 15d-PGJ2-induced platelet production [3]: attenuate 15d-PGJ2-induced platelet production | effect of antioxidant pretreatment on 15d-PGJ2 ROS induction (Meg-01 cells [2]): attenuated both ROS induction and platelet formation | effect of antioxidant pretreatment on 15d-PGJ2 ROS induction [4]: attenuated both ROS induction and platelet formation

CCCCC[C@H](O)/C=C/[C@@H]1[C@H]2C/C(=C/CCCC(=O)O)O[C@H]2C[C@H]1O [PGI2]
platelet production (Meg-01 cells [1]): failed to enhance platelet production

CCOC(=O)CNC(=O)[C@H](CS)NC(=O)CC[C@H](N)C(=O)O [GSH-EE, glutathione reduced ethyl ester, reference compound]
effect of antioxidant pretreatment on 15d-PGJ2-induced platelet production (Meg-01 cells [1]): attenuate 15d-PGJ2-induced platelet production | effect of antioxidant pretreatment on 15d-PGJ2-induced platelet production [3]: attenuate 15d-PGJ2-induced platelet production | effect of antioxidant pretreatment on 15d-PGJ2 ROS induction (Meg-01 cells [2]): attenuated both ROS induction and platelet formation | effect of antioxidant pretreatment on 15d-PGJ2 ROS induction [4]: attenuated both ROS induction and platelet formation

CCCCC[C@H](O)/C=C/[C@H]1[C@H](O)CC(=O)[C@@H]1C/C=C\CCCC(=O)O [PGE2]
platelet production (Meg-01 cells [1]): failed to enhance platelet production

O=C(Nc1ccccc1)c1cc([N+](=O)[O-])ccc1Cl [GW9662]
blocking of 15d-PGJ2-enhanced platelet production (Meg-01 cells [1]; Meg-01 cells pre-treated 2 h with 100 nM GW9662, then 15d-PGJ2 24 h): not blocked
